We go through 7 substances from US10179801B2, “Truncated LYP-1 peptides and methods and compositions using truncated LYP-1 peptides” (SANFORD-BURNHAM MEDICAL RESEARCH INSTITUTE, priority 2011, dated 2019).

“Also recorded” adds a separate entry of the source. Ends that are not written are not given here. * marks the point of attachment. Biotin = O=C1N[C@H]2[C@H](CS[C@H]2CCCCC(=O)*)N1

Test [1] has as its system tumor. Particulars: CGKRK by itself; cited from earlier work.
The target in a further test is T1, NRP1 (Homo sapiens, UniProt O14786).
T1 construct: endogenous in cells; host or cells: DU145 prostate carcinoma cells
Briefly: Phage binding to DU145 cells with ligand-blocking anti-NRP1. It is filed as cell-based. Particulars: 4° C. The method, then: To measure phage binding on cells, 2×10^5 suspended cells were incubated with 7×10^8 pfu/mL of T7 phage in DMEM/BSA 1% for 1 h at 4° C. Ligand-blocking antibodies or control goat IgG isotype (10 μg/sample) were added 30 min prior to phage incubation. The cells were washed four times with DMEM/BSA 1%, and lysed with lysogeny broth containing 1% Nonidet P-40 (LB/NP40) before phage titration.
The role of the CendR motif in the LyP-1 peptide was investigated by testing the binding of phage displaying the predicted active CendR fragment CGNKRTR (tLyP-1 for truncated LyP-1; SEQ ID NO:4) and other truncated forms of LyP-1 to cultured tumor cells. DU145 prostate carcinoma cells were used, which express NRP1, but not NRP2 (FIG. 6). As these peptides could have other receptors on the DU145 cells, inhibition of cell binding by a function-blocking anti-NRP1 antibody was used as an indicator of NRP1 dependence of phage binding. […] This is supported by recent modeling studies showing that glycine-containing peptides (G7 (SEQ ID NO:104), G3RG3 (SEQ ID NO:105), and G4RG2 SEQ ID NO:106) were able to dock in NRP1 binding pocket without major deformation of the receptor structure (Haspel et al, 2011).

Test [2] concerns the target T2, p32 (Homo sapiens, UniProt Q07021).
T2 sequence (Q07021 74-282): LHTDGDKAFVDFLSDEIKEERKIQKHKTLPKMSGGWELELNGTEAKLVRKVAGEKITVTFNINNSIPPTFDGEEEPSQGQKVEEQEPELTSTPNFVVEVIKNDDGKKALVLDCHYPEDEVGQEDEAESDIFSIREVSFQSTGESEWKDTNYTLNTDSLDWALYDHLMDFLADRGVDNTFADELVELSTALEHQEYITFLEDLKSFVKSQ
Briefly: ELISA-based saturation assay of FAM-peptides on purified p32. The format is binding. Particulars: wells coated with 3 μg/mL p32, 37° C. 1 h. The method, then:
Binding of FAM-tLyP-1 and FAM-LyP-1 to p32 was measured by an ELISA-based assay. Microtiter wells coated with 3 μg/mL of purified p32 (Fogal et al, 2008) were incubated with increasing concentrations of FAM-peptides at 37° C. for 1 h. After washing with cold PBS added with 0.01% Tween 20 and 0.2 M NaCl, fluorescence was read at 495 nm.
(§1) The MDA-MB-435 cells express the cell surface LyP-1 primary receptor p32 (Fogal et al, 2008). To test whether internalization of tLyP-1 and LyP-1 could occur through this receptor, tLyP-1 capacity to bind p32 was explored. […] Thus, only the intact LyP-1 peptide binds to p32.

For test [3], the target named is T3, p32 (Mus musculus, UniProt O35658).
T3 construct: from tissue; host or cells: 4T1 breast tumor extracts (orthotopic tumors in BALB/c mice)
T3 sequence (O35658 71-278): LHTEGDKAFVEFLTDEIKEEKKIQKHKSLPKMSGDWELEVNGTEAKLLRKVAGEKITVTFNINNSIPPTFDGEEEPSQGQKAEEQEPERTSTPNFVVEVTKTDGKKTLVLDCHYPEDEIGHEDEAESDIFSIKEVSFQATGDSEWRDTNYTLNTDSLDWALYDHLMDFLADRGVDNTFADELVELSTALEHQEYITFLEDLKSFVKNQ
Briefly: Affinity chromatography of 4T1 breast tumor extracts on tLyP-1. It is filed as binding. The conditions noted are these: data not shown.
From the text: as §1

For test [4], the system named is tumor. Briefly: Tumor penetration of a compound co-administered with tLyP-1. The format is in vivo. Particulars: tLyP-1 peptide injected together with CGKRK; confocal microscopy. The source says:
Thus, tLyP-1 can also induce penetration of a co-administered compound.

The next test concerns 4T1 tumors. Briefly: FAM-peptide homing in 4T1 tumor bearing mice. It is filed as in vivo, BALB/c mice. The conditions noted are these: i.v., 1 h circulation. The method, then: To produce 4T1 tumors, BALB/c mice were orthotopically injected into the mammary fat pad with 10^6 cells suspended in 100 μL of PBS. To produce MDA-MB-435 breast tumors, BALB/C athymic nude mice were orthotopically injected into the mammary fat pad with 2×10^6 cells suspended in 100 μL of PBS.
4T1 tumor bearing BALB/c mice and MDA-MB-435 tumor bearing nude mice were intravenously injected with respectively 150 μL and 100 μL of 1 mM FAM-labeled synthetic peptides. After 1 h circulation, mice were perfused and tissues were collected and observed under UV light (Illuma—tool Bright Light System LT-9900) and processed for immunofluorescence analysis.
150 μl of 1 mM FAM-tLyP-1 or control FAM-[…] was intravenously injected into 4T1 tumor bearing mice. The peptides were allowed to circulate for 1 h and tumors and organs were collected and viewed under UV light. […] FAM-tLyP-1 (100 μl of 1 mM) was intravenously injected into MDA-MB-435 tumor bearing mice. The peptide was allowed to circulate for 45 min, and tumor and organs were collected and viewed under UV light. […] Confocal microscope images were made of the tumor and of normal organs after 1 h of FAM-tLyP-1 circulation in 4T1 tumor bearing mice.

Another test deals with MDA-MB-435 cells. Briefly: Phage binding and internalization into MDA-MB-435 cells (confocal microscopy). The conditions noted are these: 30 min pre-incubation, increasing concentrations, phage 2 h. It is filed as cell-based, human. On the procedure:
(§2) Cells were grown on collagen I-coated coverslips (BD Biosciences) for 24-72 h. After 4% PFA fixation, cells were stained with antibodies following the same procedure as for tumor sections, and mounted in DAPI-containing mounting media. For phage binding assay, 10^9 pfu of phage in cell culture medium were incubated for 1-2 h. When neutravidin-peptide inhibitors were used, they were added to the cell medium 30 min prior to phage incubation. Neutravidin alone, at the maximum concentration used in the assay, was used as a control. Cells were examined on a Fluoview 500 confocal microscope (Olympus America).
Cells were co-stained for NRP2 and nuclei were stained with DAPI. […] Non-conjugated neutravidin was used as a control. Nuclei were stained with DAPI.
Having established that tLyP-1, but not LyP-1, binds to NRP1 and NRP2, but both peptides internalize into tumor cells, it was realized that LyP-1 is converted into tLyP-1 and that the two peptides are taken up by cells through the CendR pathway. The effect of an excess of tLyP-1 on LyP-1 internalization was tested. […] After 30 min pre-incubation with increasing concentrations of neutravidin-tLyP-1 peptide, MDA-MB-435 cells were incubated with LyP-1 phage for 2 h. Phage were stained with anti-T7 antibody. Nuclei were stained with DAPI.

The subject of the next test is PPC1 cells. Briefly: Phage binding and internalization into PPC1 cells (confocal microscopy). The conditions noted are these: 30 min pre-incubation, increasing concentrations, phage 2 h. The format is cell-based, human. On the procedure: as §2
Phage were detected by staining with anti-T7 phage polyclonal antibody. Nuclei were stained with DAPI. […] Cells were co-stained for NRP1 and nuclei were stained with DAPI. […] Non-conjugated neutravidin was used as a control. Nuclei were stained with DAPI. Cells were analyzed by confocal microscopy.

T1 sequence (O14786 22-923): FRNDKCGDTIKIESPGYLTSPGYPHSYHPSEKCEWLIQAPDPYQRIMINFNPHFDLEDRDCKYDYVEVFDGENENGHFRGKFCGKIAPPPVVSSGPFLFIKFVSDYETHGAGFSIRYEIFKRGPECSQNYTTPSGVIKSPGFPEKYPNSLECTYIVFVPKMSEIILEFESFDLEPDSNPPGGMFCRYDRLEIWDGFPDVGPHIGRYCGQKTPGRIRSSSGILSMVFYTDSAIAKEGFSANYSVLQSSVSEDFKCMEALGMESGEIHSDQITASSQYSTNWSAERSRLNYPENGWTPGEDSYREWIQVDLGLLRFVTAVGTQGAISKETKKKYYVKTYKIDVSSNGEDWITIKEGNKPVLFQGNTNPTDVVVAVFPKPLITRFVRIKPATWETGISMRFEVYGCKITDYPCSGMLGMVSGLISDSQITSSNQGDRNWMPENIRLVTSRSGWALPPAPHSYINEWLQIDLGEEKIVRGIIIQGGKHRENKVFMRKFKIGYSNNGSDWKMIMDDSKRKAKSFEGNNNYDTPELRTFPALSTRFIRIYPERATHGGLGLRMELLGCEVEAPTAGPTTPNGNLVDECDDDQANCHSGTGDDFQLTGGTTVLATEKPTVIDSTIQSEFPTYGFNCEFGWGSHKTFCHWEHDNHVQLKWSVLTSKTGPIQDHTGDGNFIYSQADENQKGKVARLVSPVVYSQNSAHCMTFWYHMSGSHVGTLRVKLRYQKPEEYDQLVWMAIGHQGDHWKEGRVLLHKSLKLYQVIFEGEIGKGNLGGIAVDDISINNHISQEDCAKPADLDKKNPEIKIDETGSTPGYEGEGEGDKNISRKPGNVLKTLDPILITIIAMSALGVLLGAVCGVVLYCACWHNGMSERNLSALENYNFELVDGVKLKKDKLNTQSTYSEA

Consider CGKRK [tumor-homing peptide], for which the “Exit from blood vessels of peptide alone” value in the test with tumor [1] was “unable to get out of blood vessels by itself”.

As to CGNK, the “Effect of ligand-blocking anti-NRP1 on phage binding to DU145 cells (in words)” value (“Effect of ligand-blocking anti-NRP1” below) at NRP1 was “not enough to confer significant ability to bind to NRP1”.

Turning to CGNKR, on NRP1, the “Effect of ligand-blocking anti-NRP1” value is listed as “not enough to confer significant ability to bind to NRP1”.

On to “CGNKRTR [tLyP-1, truncated form of LyP-1, in which CendR motif is exposed]”, for which the “Binding to purified p32” value with p32 [2] is “low binding”. In addition, the “Binding of p32 from tumor extract to peptide affinity matrix” value in the test with p32 [3] is reported as “no binding of p32”. The “Tumor penetration of co-injected CGKRK” value with tumor [4] is on record as “enhanced tumor penetration of CGKRK”.

In the case of CGNKRTRG, the “Effect of ligand-blocking anti-NRP1” value at NRP1 is “mild reproducible decrease”.

Consider “FAM-ARALPSQRSR: control peptide, fluorescein-labeled ARALPSQRSR (not fully specified; fluorescein label)”, for which the “Tumor fluorescence / accumulation of FAM-peptide” value in the test with 4T1 tumors was “did not accumulate in the tumors; also recorded: absence of fluorescence”.

Regarding “oligomeric RPARPAR peptide: tetrameric biotinylated RPARPAR peptide conjugated with neutravidin (Biotin-RPARPAR; not fully specified (C-terminus); also: tetrameric, biotinylated, conjugated with neutravidin)”, the “Inhibition of tLyP-1 phage binding and internalization in MDA-MB-435 cells” value with MDA-MB-435 cells is “blocked the binding and internalization”. Further, the “Inhibition of tLyP-1 phage internalization into PPC1 cells” value in the test on PPC1 cells is “inhibited in a dose-dependent manner”.
